This assay has as its system gel-filtered human thrombocytes. Kind of assay: Inhibition of the aggregation of gel-filtered human thrombocytes following stimulation with ADP or thrombin (Test method 1). In kind it is cell-based. As to conditions: 1 mg/ml fibrinogen, 37° C., GFP from 2-4 donors. The method, then: As a functional test, measurement is made of the inhibition of the aggregation of gel-filtered human thrombocytes, following stimulation with ADP or thrombin, by the compounds according to the invention.
For this purpose, human thrombocytes were isolated from platelet-rich plasma (PRP) by gel filtration on Sepharose 2 B. The resulting suspension of gel-filtered platelets (GFP), which contained 3×10^8 platelets/ml, was activated in the presence of 1 mg/ml of fibrinogen either with 10 μM ADP or with 0.1 U/ml thrombin, and stirred in an aggregometer (PAP 4, Biodata, Hatboro, Penna., USA) at 37° C. and at 1000 revolutions per minute. The maximum increase in the translucency is taken as a measure of the aggregation. The test substances were added to the GFP at 37° C. and 2 min before activating with ADP or thrombin.

[1] abbreviates: Homo sapiens, ADP-stimulated (10 μM ADP), read-out: IC50, inhibition of thrombocyte aggregation, ADP-stimulated.
The mark [2] stands for this setting: Homo sapiens, Thrombin-stimulated (0.1 U/ml thrombin), read-out: IC50, inhibition of thrombocyte aggregation, Thrombin-stimulated.
Where [3] appears, read: ADP-stimulated (10 μM ADP), read-out: IC50, inhibition of thrombocyte aggregation, ADP-stimulated.
The mark [4] stands for this setting: Thrombin-stimulated (0.1 U/ml thrombin), read-out: IC50, inhibition of thrombocyte aggregation, Thrombin-stimulated.

Each structure is given as a SMILES string. Like-named read-outs stand apart in the source and are kept apart here.

The results in this text go back to US6191282A, “Substituted 5-membered ring heterocycles comprising a bicyclic or tricyclic group their preparation and their use” (Hoechst Marion Roussel, priority 1993, dated 2001).

As to `CCOc1ccc(C(CC(=O)O)NC(=O)CN2C(=O)NC(C)(c3ccc(C(=N)N)cc3)C2=O)cc1` (racemic) [Example 37, (R,S)-3-(((R,S)-4-(4-(Aminoiminomethyl)phenyl)-4-methyl-2,5-dioxoimidazolidin-1-yl)acetylamino)-3-(4-ethoxyphenyl)propionic acid], the half-inhibitory concentration (IC50) stood at 0.1 µM under setting [1] and 0.2 µM under setting [2].
On to `CC1(c2ccc(C(=N)N)cc2)NC(=O)N(CC(=O)N[C@@H](CC(=O)O)C(=O)NCC23CC4CC(CC(C4)C2)C3)C1=O` (stereo partly drawn) [Example 70, (2-((R,S)-4-(4-(Aminoiminomethyl)phenyl)-4-methyl-2,5-dioxoimidazolidin-1-yl)acetyl)-L-aspartyl-(1-adamantylmethyl)amide], for which the IC50 runs as follows: under setting [1], 0.065 µM; under setting [2], 0.07 µM.
In the same order, the values of `CCN1C(=O)N(CC(=O)NC(CC(=O)O)c2ccccc2)C(=O)C1(C)c1ccc(C(=N)N)cc1` (racemic) [Example 52, (R,S)-3-(((R,S)-4-(4-(Aminoiminomethyl)phenyl)-3-ethyl-4-methyl-2,5-dioxoimidazolidin-1-yl)acetylamino)-3-phenylpropionic acid] are 0.5 µM and 0.4 µM.
On to `CC1(c2ccc(C(=N)N)cc2)NC(=O)N(CC(=O)N[C@H](CC(=O)O)c2ccccc2)C1=O` (single isomer, unassigned) [Example 60, (R)-3-(((R or S)-4-(4-(aminoiminomethyl)phenyl)-4-methyl-2,5-dioxoimidazolidin-1-yl)acetylamino)-3-phenylpropionic acid], for which the IC50 reads like this: under setting [3], 5 µM; under setting [4], 4 µM.
Take `CC1(c2ccc(C(=N)N)cc2)NC(=O)N(CC(=O)NC(CC(=O)O)c2ccc(O)cc2)C1=O` (racemic) [Example 45, (R,S)-3-(((R,S)-4-(4-(Aminoiminomethyl)phenyl)-4-methyl-2,5-dioxoimidazolidin-1-yl)acetylamino)-3-(4-hydroxyphenyl)priopionic acid]: the IC50 by setting is: under setting [1], 0.2 µM; under setting [2], 0.2 µM.
As to `CC1(c2ccc(C(=N)N)cc2)NC(=O)N(CC(=O)N[C@H](CC(=O)O)c2ccccc2)C1=O` (single isomer, unassigned) [Example 59, (R)-3-(((S or R)-4-(4-(aminoiminomethyl)phenyl)-4-methyl-2,5-dioxoimidazolidin-1-yl)acetylamino)-3-phenylpropionic acid], the IC50 runs as follows: under setting [3], 50 µM; under setting [4], 40 µM.
Take `CC1(c2ccc(C(=N)N)cc2)NC(=O)N(CC(=O)NC(CC(=O)O)c2cccc(C(=O)O)c2)C1=O` (racemic) [Example 42, (R,S)-3-(((R,S)-4-(4-(Aminoiminomethyl)phenyl)-4-methyl-2,5-dioxoimidazolidin-1-yl)acetylamino)-3-(3-hydroxycarbonylphenyl)propionic acid]: the IC50 was found to be 0.3 µM under setting [1] and 0.2 µM under setting [2].
On to `N=C(N)c1ccc(CC2NC(=O)N(CC(=O)NC[C@H](NC(=O)OCc3ccccc3)C(=O)O)C2=O)cc1` (stereo partly drawn) [Example 9, 3-(((R,S)-4-(4-(Aminoiminomethyl)benzyl)-2,5-dioxoimidazolidin-1-yl)acetylamino)-2-benzyloxycarbonylaminopropionic acid], for which the half-maximal inhibitory concentration (IC50) is, setting by setting: under setting [1], 1 µM; under setting [2], 0.5 µM.
For `COC(=O)[C@@H](NC(=O)[C@H](CC(=O)O)NC(=O)CN1C(=O)NC(C)(c2ccc(C(=N)N)cc2)C1=O)c1ccccc1` (stereo partly drawn) [Example 23, ((R,S)-4-(4-(Aminoiminomethyl)phenyl)-4-methyl-2,5-dioxoimidazolidin-1-yl)acetyl-L-aspartyl-L-phenylglycine methyl ester] the same measures were 0.03 µM and 0.05 µM.
For `CC1(c2ccc(C(=N)N)cc2)NC(=O)N(CC(=O)N[C@@H](CC(=O)O)C(=O)NC2C3CC4CC(C3)CC2C4)C1=O` (stereo partly drawn) [Example 69, (2-((R,S)-4-(4-(Aminoiminomethyl)phenyl)-4-methyl-2,5-dioxoimidazolidin-1-yl)acetyl)-L-aspartyl-2-adamantylamide] the same measures were 0.025 µM and 0.045 µM.
In the same order, the values of `COc1cc(C(CC(=O)O)NC(=O)CN2C(=O)NC(C)(c3ccc(C(=N)N)cc3)C2=O)cc(OC)c1OC` (racemic) [Example 44, (R,S)-3-(((R,S)-4-(4-(Aminoiminomethyl)phenyl)-4-methyl-2,5-dioxoimidazolidin-1-yl)acetylamino)-3-(3,4,5-trimethoxyphenyl)propionic acid] are 0.4 µM and 0.2 µM.
Take `CN1C(=O)N(CC(=O)NC(CC(=O)O)c2ccccc2)C(=O)C1(C)c1ccc(C(=N)N)cc1` (racemic) [Example 50, (R,S)-3-(((R,S)-4-(4-(Aminoiminomethyl)phenyl)-3,4-dimethyl-2,5-dioxoimidazolidin-1-yl)acetylamino)-3-phenylpropionic acid]: the IC50 was 0.55 µM under setting [1] and 0.4 µM under setting [2].
In the same order, the values of `CC1(c2ccc(C(=N)N)cc2)NC(=O)N(CC(=O)NC(CC(=O)O)c2ccc3c(c2)OCO3)C1=O` (racemic) [Example 67, (R,S)-3-(((R,S)-4-(4-(aminoiminomethyl)phenyl)-4-methyl-2,5-dioxoimidazolidin-1-yl)acetylamino)-3-(3,4-methylenedioxyphenyl)propionic acid] are 0.08 µM and 0.2 µM.
Take `CCN1C(=O)N(CC(=O)N[C@@H](CC(=O)O)C(=O)N[C@H](C(=O)O)c2ccccc2)C(=O)C1(C)c1ccc(C(=N)N)cc1` (stereo partly drawn) [Example 24, ((R,S)-4-(4-(Aminoiminomethyl)phenyl)-3-ethyl-4-methyl-2,5-dioxoimidazolidin-1-yl)acetyl-L-aspartyl-L-phenylglycine]: the half-maximal inhibitory concentration (IC50) is 0.055 µM under setting [3] and 0.08 µM under setting [4].
Take `CC(C)(C)OC(=O)NN(CC(=O)O)C(=O)CN1C(=O)NC(=Cc2ccc(C(=N)N)cc2)C1=O` [Example 20]: the IC50 by setting is: under setting [1], 2 µM; under setting [2], 1 µM.
For the compound `CCCCCC(=O)NC(CNC(=O)CN1C(=O)N(C)C(C)(c2ccc(C(=N)N)cc2)C1=O)C(=O)O` (racemic) [Example 31, (R,S)-3-(((R,S)-4-(4-(Aminoiminomethyl)phenyl)-3,4-dimethyl-2,5-dioxoimidazolidin-1-yl)acetylamino)-2-pentylcarbonylaminopropionic acid], the IC50 runs as follows: under setting [1], 3 µM; under setting [2], 0.6 µM.
For `COc1cc(C(CC(=O)O)NC(=O)CN2C(=O)NC(C)(c3ccc(C(=N)N)cc3)C2=O)ccc1O` (racemic) [Example 36, (R,S)-3-(((R,S)-4-(4-(Aminoiminomethyl)phenyl)-4-methyl-2,5-dioxoimidazolidin-1-yl)acetylamino)-3-(4-hydroxy-3-methoxyphenyl)propionic acid], the 50% inhibitory concentration (IC50) runs as follows: under setting [1], 0.2 µM; under setting [2], 0.15 µM.
As to `CCCCS(=O)(=O)NC(CNC(=O)CN1C(=O)N(C)C(C)(c2ccc(C(=N)N)cc2)C1=O)C(=O)O` (racemic) [Example 33, (R,S)-3-(((R,S)-4-(4-(Aminoiminomethyl)phenyl)-3,4-dimethyl-2,5-dioxoimidazolidin-1-yl)acetylamino)-2-butylsulphonylaminopropionic acid], the IC50 runs as follows: under setting [1], 0.5 µM; under setting [2], 0.2 µM.

As usually defined, the IC50 is the concentration needed to halve the response being measured.
